The values below are quoted from earlier work in patent US20120095034A1, “PIPERIDINE DERIVATIVES USEFUL AS OREXIN RECEPTOR ANTAGONISTS” (priority 2007, published 2012).

No end group written: not given here.

This series deals with rats. Conditions: central administration at the onset of the normal sleep period, rat.

As to “orexin-A: ligand for the orexin-1 receptor; an agonist of the orexin receptors (QPLPDCCRQKTCSCRLYELLHGAGNHAAGILTL; ends and bridges not checked; cysteine pairing not given here; UniProt O43612 34-66, looked up)”, the arousal entry was “dose-related increase in arousal”.
